Residues, ends and D or L forms follow the SMILES beside them. No end group written: not given here.
Key:
Assay type in all cases: cell-based
Conditions in all cases: 24 h
[1] = tested on: human breast malignant carcinoma cell line (MT-1)
Method: The cytotoxic effects of the peptides on different human tumour cells were measured using the MTT colorimetric assay (Mosmann, 1983). MIT (3-(4-5-dimethylthiazol-2-yl)-2,5-diphenyl tetrazolium bromide) is a soluble tetrazolium salt yielding a yellow solution when prepared in media or salt solutions lacking phenol red. Dissolved MIT is converted to an insoluble purple formazan by cleavage of the tetrazolium ring by dehydrogenase enzymes. This water insoluble formazan can be solubilized using isopropanol or other solvents and the dissolved material is measured spectrophotometrically. The absorbance was measured as a function of concentration of converted dye. […]
The tumour cell lines FemX, HT-29, MT-1 were maintained in RPMI-1640 medium supplemented with 10% heat inactivated FBS and 1% L-glutamine in a humidified atmosphere of 5% CO2 at 37° C. […] Cells to be used in the assay were grown to a minimum of 75% confluency, trypsinated and split to single cell suspension, counted and centrifuged at 1500 rpm for 10 min. […]
The cytotoxicity was measured using the MTT method (Mosmann, 1983), with minor modifications. […] The plate was placed on a shaker for 1 hour at room temperature and read spectrophotometrically at 590 nm in a microtiter plate reader (DTX880 Multimode Detector, Beckman Coulter). […]

[2] = tested on: human colorectal adenocarcinoma cell line HT-29
[3] = tested on: human embryonic lung fibroblast cell line MRC-5

Compound	IC50 [1]	IC50 [2]	IC50 [3]
CC[C@H](C)[C@H](NC(=O)CNC(=O)[C@H](CO)NC(=O)[C@H](CCCCN)NC(=O)[C@@H](NC(=O)[C@H](C)NC(=O)[C@H](Cc1c[nH]cn1)NC(=O)[C@H](CO)NC(=O)[C@@H](NC(=O)[C@H](CCCCN)NC(=O)[C@H](Cc1c[nH]cn1)NC(=O)[C@H](Cc1ccccc1)NC(=O)[C@@H](NC(=O)[C@H](CCCCN)NC(=O)[C@H](CCCCN)NC(=O)[C@H](Cc1ccccc1)NC(=O)C(Cc1c[nH]c2ccc(Br)cc12)NC(=O)CN)[C@@H](C)O)C(C)C)C(C)C)C(=O)N[C@@H](Cc1c[nH]cn1)C(=O)N[C@@H](C)C(=O)NCC(=O)N[C@@H](CCC(N)=O)C(=O)N[C@@H](CCCNC(=N)N)C(=O)NCC(=O)N[C@@H](CS)C(=O)N[C@@H](CO)C(=O)N[C@@H](C)C(=O)N[C@@H](CC(C)C)C(=O)NCC(=O)N[C@@H](Cc1ccccc1)C(=O)O (stereo partly drawn) [P17 HC-Br] (HELM PEPTIDE1{G.[O=C(C(Cc1c[nH]c2ccc(Br)cc12)N[*:1])[*:2]].F.K.K.T.F.H.K.V.S.H.A.V.K.S.G.I.H.A.G.Q.R.G.C.S.A.L.G.F}$$$$V2.0)	20 µM	–	–
GWFKKTFHKVSHAVKSGIHAGQRGCSALGF [P17 HC]	–	52 µM	53 µM
